According to ChEMBL document CHEMBL1201862, “PubChem BioAssay data set” (2004):
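Test compounds were applied to cells in 96-well plates for 48 hours at 5 doses. Here, GI50 denotes the concentration required for 50% inhibition of growth.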 Active and inactive are the calls of the source. No stated cut-off is given here; in the data, active = GI50 up to about 1.1 µM and inactive = higher.

Key:
Test in all cases: NCI-60 cell line screen, 48 h
[1] = system: SK-MEL-28
[2] = system: U-251
[3] = system: OVCAR-8
[4] = system: DU-145
[5] = system: HOP-92
[6] = system: MDA-MB-231
[7] = system: SNB-75
[8] = system: K562
[9] = system: SF-539
[10] = system: UACC-62
[11] = system: SK-OV-3
[12] = system: A498
[13] = system: SNB-19
[14] = system: NCI-H226
[15] = system: PC-3
[16] = system: SF-268
[17] = system: LOX IMVI
[18] = system: RPMI-8226
[19] = system: HCT-15

Row | Compound | GI50 [1] | GI50 [2] | GI50 [3] | GI50 [4] | GI50 [5] | GI50 [6] | GI50 [7] | GI50 [8] | GI50 [9] | GI50 [10] | GI50 [11] | GI50 [12] | GI50 [13] | GI50 [14] | GI50 [15] | GI50 [16] | GI50 [17] | GI50 [18] | GI50 [19]
1 | N#CC(C#N)=Cn1c(=S)[nH]c2ccc([N+](=O)[O-])cc21 | > 100 µM (inactive) | > 100 µM (inactive) | > 100 µM (inactive) | > 100 µM (inactive) | > 100 µM (inactive) | 68.7 µM (inactive) | 15.2 µM (inactive) | > 100 µM (inactive) | > 100 µM (inactive) | > 100 µM (inactive) | > 100 µM (inactive) | > 100 µM (inactive) | > 100 µM (inactive) | > 100 µM (inactive) | > 100 µM (inactive) | > 100 µM (inactive) | > 100 µM (inactive) | > 100 µM (inactive) | –
2 | Cc1cccc(C)c1NC(=O)C(Cc1c[nH]c2ccccc12)NC(=O)OCc1ccccc1 (stereo not given) | 18.9 µM (inactive) | 19.5 µM (inactive) | 27.3 µM (inactive) | 17 µM (inactive) | 22.4 µM (inactive) | 16.7 µM (inactive) | 18.7 µM (inactive) | 30.2 µM (inactive) | 20.2 µM (inactive) | 16.6 µM (inactive) | 22.8 µM (inactive) | 21.2 µM (inactive) | 14.9 µM (inactive) | – | 12.3 µM (inactive) | 18.7 µM (inactive) | 19.5 µM (inactive) | 15.6 µM (inactive) | 22.3 µM
3 | Cc1ccc(-c2n[nH]c(=O)n2/N=C\c2ccc([N+](=O)[O-])cc2)cc1 | > 100 µM (inactive) | > 100 µM (inactive) | > 100 µM (inactive) | > 100 µM (inactive) | > 74.3 µM (inactive) | 9.75 µM (inactive) | 97.5 µM (inactive) | 32 µM (inactive) | > 100 µM (inactive) | 60.1 µM (inactive) | > 100 µM (inactive) | > 100 µM (inactive) | > 100 µM (inactive) | > 100 µM (inactive) | > 100 µM (inactive) | > 100 µM (inactive) | > 100 µM (inactive) | 76.9 µM (inactive) | 86.7 µM
4 | CC(C)(C)c1ccc(/C=N/NC(=O)CSCC(=O)N/N=C/c2ccc(C(C)(C)C)cc2)cc1 | 6.17 µM (inactive) | 1.61 µM (inactive) | 2.63 µM (inactive) | 5.83 µM (inactive) | 2.49 µM (inactive) | 0.22 µM (active) | 5.32 µM (inactive) | 2.55 µM (inactive) | 2.12 µM (inactive) | 16.4 µM (inactive) | 5.61 µM (inactive) | 1.46 µM (inactive) | 2.93 µM (inactive) | 2.09 µM (inactive) | 2.8 µM (inactive) | 1.9 µM (inactive) | – | 2.77 µM (inactive) | 4.14 µM
5 | Cc1ccc(NC(=O)CC(=O)N2N=C(N(c3ccccc3)c3ccccc3)CC2c2ccccc2)cc1 (stereo not given) | > 100 µM (inactive) | > 100 µM (inactive) | > 100 µM (inactive) | > 100 µM (inactive) | > 100 µM (inactive) | > 100 µM (inactive) | 91.4 µM (inactive) | > 100 µM (inactive) | > 100 µM (inactive) | > 100 µM (inactive) | > 100 µM (inactive) | > 100 µM (inactive) | > 100 µM (inactive) | > 100 µM (inactive) | 85.7 µM (inactive) | 75.7 µM (inactive) | – | > 100 µM (inactive) | > 100 µM
6 | COC1=C(Cl)C(=O)c2c(O)ccc(O)c2C1=O | 2.58 µM (inactive) | 3.53 µM (inactive) | 2 µM (inactive) | 2.38 µM (inactive) | 1.78 µM (inactive) | 1.66 µM (inactive) | 4.88 µM (inactive) | 0.826 µM (active) | 0.578 µM (active) | 1.07 µM (active) | 16 µM (inactive) | 0.794 µM (active) | 5.98 µM (inactive) | 11.2 µM (inactive) | 3.07 µM (inactive) | 2.43 µM (inactive) | 1.38 µM (inactive) | 0.272 µM (active) | 1.34 µM
